Drawing on patent US6767907B2, “4-aryl-1-(indanmethyl dihydrobenzofuranmethyl or dihydrobenzothiophenemethyl) piperidines tetrahydropyridines or piperazines” (H. Lundbeck A/S, priority 1994, dated 2004), this text covers IC50, inhibition and melting point for 24 molecules.

Each structure is given as a SMILES string. Read-outs that look alike come from different tables or passages of the source. Where only a bound is given, the exact number is not on record here.

Data set [1] addresses T1, 5-HT2A receptors (Rattus norvegicus, UniProt P14842).
T1 construct: 5-HT2A receptors in membranes from rat is determined in vitro; from tissue; host or cells: rat cortex membranes
In words: Inhibition of 3H-Ketanserin binding to 5-HT2 receptors in rat cortex in vitro. The note with it: 3H-Ketanserin 0.5 nM; for IC50: membranes from rat cortex, read-out: 3H Ketanserin (5-HT2A) binding, IC50. The method, then:
Inhibition of ^3H-Ketanserin Binding to 5-HT2 Receptors in Rat Cortex in vitro.
By this method the inhibition by drugs of the binding of ^3H-Ketanserin (0.5 nM) to 5-HT2A receptors in membranes from rat is determined in vitro .

Data set [2] concerns the target T2, 5-HT1A receptors (Rattus norvegicus, UniProt P19327).
T2 construct: 5-HT1A receptors in membranes from rat brain minus cerebellum; from tissue; host or cells: rat brain minus cerebellum, membranes
T2 sequence (P19327 1-422): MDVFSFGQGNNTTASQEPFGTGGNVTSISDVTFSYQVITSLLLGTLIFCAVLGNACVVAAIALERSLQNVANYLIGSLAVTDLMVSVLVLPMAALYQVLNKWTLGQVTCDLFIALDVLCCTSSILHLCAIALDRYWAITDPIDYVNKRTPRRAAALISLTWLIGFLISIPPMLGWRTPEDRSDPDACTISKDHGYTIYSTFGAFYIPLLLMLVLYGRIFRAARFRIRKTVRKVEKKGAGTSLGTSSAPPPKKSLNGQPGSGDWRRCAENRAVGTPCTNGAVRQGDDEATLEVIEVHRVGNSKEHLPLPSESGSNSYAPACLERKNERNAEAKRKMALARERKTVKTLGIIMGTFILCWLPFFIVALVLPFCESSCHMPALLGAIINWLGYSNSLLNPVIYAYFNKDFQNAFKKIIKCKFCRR
In words: Inhibition of 3H-8-OH-DPAT binding to serotonin 5-HT1A receptors in rat brain in vitro. The note with it: for inhibition at 0.1 µM: read-out: 3H 8-OH DPAT (5-HT1A) binding, % inhibition of binding at 100 nM, at 100 nM, rat brain membranes. The method, then:
By this method the inhibition by drugs of the binding of the 5-HT1A agonist ^3H-8-OH-DPAT (1 nM) to 5-HT1A receptors in membranes from rat brain minus cerebellum is determined in vitro . Accordingly, this is a test for affinity for the 5-HT1A receptor. The test is performed as described by Hyttel et al., Drug. Dev. Res., 1988, 15, 389-404.

Where [3] appears, read: 3H-8-OH-DPAT 1 nM, membranes from rat brain minus cerebellum, read-out: 3H 8-OH DPAT (5-HT1A) binding, IC50.

T1 sequence (P14842 whole entry): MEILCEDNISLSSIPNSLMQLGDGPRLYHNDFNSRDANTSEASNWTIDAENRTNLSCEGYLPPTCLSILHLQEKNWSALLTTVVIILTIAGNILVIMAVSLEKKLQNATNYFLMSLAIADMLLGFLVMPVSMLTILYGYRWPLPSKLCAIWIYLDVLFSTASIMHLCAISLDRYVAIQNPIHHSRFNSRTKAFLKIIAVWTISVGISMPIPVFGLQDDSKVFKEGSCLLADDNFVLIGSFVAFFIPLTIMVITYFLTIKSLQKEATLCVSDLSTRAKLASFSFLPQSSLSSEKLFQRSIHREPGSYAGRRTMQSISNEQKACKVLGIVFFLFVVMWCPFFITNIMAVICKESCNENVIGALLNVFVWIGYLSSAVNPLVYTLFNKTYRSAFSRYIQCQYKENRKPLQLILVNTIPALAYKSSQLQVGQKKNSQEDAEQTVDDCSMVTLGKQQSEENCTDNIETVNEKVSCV

What is called IC50 is the point on the concentration scale where inhibition reaches its midpoint. What is called inhibition is the percentage by which the read-out fell short of the control. One may read the melting point as the temperature of the solid-liquid transition. As to `Nc1ccc2c(c1)C(CN1CCN(c3ccc(Cl)c(Cl)c3)CC1)CC2` (stereo not shown) [Compound 2h, 1-(6-Aminoindan-1-ylmethyl)-4-(3,4-dichlorophenyl)piperazine], the melting point fell in the range of 156 to 158 °C. Besides, the IC50 in data set [1] turned out to be 0.0041 µM. Further, the inhibition at 0.1 µM in data set [2] (3H-8-OH-DPAT 1 nM) was found to be 19%.
`CC(=O)Nc1ccc2c(c1)C(CN1CCC(c3ccc(F)cc3)CC1)CC2` (stereo not shown) [Compound 4a, 1-(6-Acetylaminoindan-1-ylmethyl)-4-(4-fluorophenyl)piperidine]: the melting point was 159 to 162 °C. Also, in data set [1], the IC50 came to 0.004 µM. Further, the half-maximal inhibitory concentration (IC50) in data set [2] (setting [3]) was 0.011 µM.
With `CC(=O)Nc1ccc2c(c1)C(CN1CCN(c3ccc(F)cc3)CC1)CC2` (stereo not shown) [Compound 4b, 1-(6-Acetylaminoindan-1-ylmethyl)-4-(4-fluorophenyl)piperazine], the melting point is 179 to 187 °C. Moreover, the 50% inhibitory concentration (IC50) in data set [1] is 0.0029 µM. Moreover, the 50% inhibitory concentration (IC50) in data set [2] (setting [3]) was found to be 0.021 µM.
The like results for `CC(=O)Nc1ccc2c(c1)C(CN1CCC(c3ccc(F)cc3)CC1)CS2` (stereo not shown) [Compound 4c, 1-(5-Acetylamino-2,3-dihydrobenzothiophen-3-ylmethyl)-4-(4-fluorophenyl)piperidine] were, in that order, 140 to 142 °C, 0.0023 µM and 0.028 µM.
The like results for `CC(=O)Nc1ccc2c(c1)C(CN1CCN(c3ccc(Cl)cc3)CC1)CC2` (stereo not shown) [Compound 4d, 1-(6-Acetylaminoindan-1-ylmethyl)-4-(4-chlorophenyl)piperazine] were, in that order, 191 to 194 °C, 0.005 µM and 0.012 µM.
As for `CC(=O)Nc1ccc2c(c1)C(CN1CCN(c3cccc(Cl)c3)CC1)CC2` (stereo not shown) [Compound 4e, 1-(6-Acetylaminoindan-1-ylmethyl)-4-(3-chlorophenyl)piperazine], the melting point fell in the range of 176 to 178 °C. In data set [1], the IC50 turned out to be 0.005 µM. Further, the IC50 in data set [2] (setting [3]) turned out to be 0.038 µM.
The molecule `CC(=O)Nc1ccc2c(c1)C(CN1CC=C(c3ccc(F)cc3)CC1)CC2` (stereo not shown) [Compound 4h, 1-(6-Acetylaminoindan-1-ylmethyl)-4-(4-fluorophenyl)-1,2,3,6-tetrahydropyridine] gave a melting point of 156 to 161 °C. Besides, in data set [1], the IC50 came to 0.0028 µM. Moreover, the 50% inhibitory concentration (IC50) in data set [2] (setting [3]) worked out at 0.011 µM.
The like results for `CS(=O)(=O)Nc1ccc2c(c1)C(CN1CCC(c3ccc(F)cc3)CC1)CC2` (stereo not shown) [Compound 4i, 4-(4-Fluorophenyl)-1-(6-methansulfonylaminoindan-1-ylmethyl)piperidine] were, in that order, 152 to 155 °C, 0.0021 µM and 0.5 µM.
`O=C(Nc1ccc2c(c1)C(CN1CCC(c3ccc(F)cc3)CC1)CC2)C1CC1` (stereo not shown) [Compound 4j, 1-(6-Cyclopropylcarbonylaminoindan-1-ylmethyl)-4-(4-fluorophenyl)piperidine] came in with a melting point of 134 to 140 °C. Besides, the IC50 in data set [1] stood at 0.015 µM. For the same molecule, the IC50 in data set [2] (setting [3]) is 0.045 µM.
Taken in the same sequence, the figures for `O=C(Nc1ccc2c(c1)C(CN1CCC(c3ccc(F)cc3)CC1)CC2)C1CCCC1` (stereo not shown) [Compound 4k, 1-(6-Cyclopentylcarbonylaminoindan-1-ylmethyl)-4-(4-fluorophenyl)piperidine] were 177 to 178 °C, 0.03 µM and 0.24 µM.
Taken in the same sequence, the figures for `CC(=O)Nc1ccc2c(c1)C(CN1CCC(c3ccc(C)cc3)CC1)CC2` (stereo not shown) [Compound 4n, 1-(6-Acetylaminoindan-1-ylmethyl)-4-(4-methylphenyl)piperidine] were 173 to 175 °C, 0.0039 µM and 0.027 µM.
`CC(=O)Nc1ccc2c(c1)C(CN1CCN(c3ccc(Cl)c(Cl)c3)CC1)CC2` (stereo not shown) [Compound 4o, 1-(6-Acetylaminoindan-1-ylmethyl)-4-(3,4-dichlorophenyl)piperazine] yielded a melting point of 160 to 163 °C. In addition, in data set [1], the 50% inhibitory concentration (IC50) was 0.051 µM. Moreover, the IC50 in data set [2] (setting [3]) was found to be 0.011 µM.
The molecule `O=C(Nc1ccc(F)cc1)Nc1ccc2c(c1)C(CN1CCC(c3ccc(F)cc3)CC1)CC2` (stereo not shown) [Compound 5b, 1-[6-(4-Fluorophenyl)aminocarbonylaminoindan-1-ylmethyl]-4-(4-fluorophenyl)-piperidine] displayed a melting point of 235 to 238 °C. Besides, the IC50 in data set [1] amounted to 0.037 µM. Further, the IC50 in data set [2] (setting [3]) was greater than 100 µM.
Taken in the same sequence, the figures for `CN(C)C(=S)Nc1ccc2c(c1)C(CN1CCC(c3ccc(F)cc3)CC1)CC2` (stereo not shown) [Compound 6b, 1-(6-Dimethylaminothiocarbonylaminoindan-1-ylmethyl)-4-(4-fluorophenyl)piperidine] were 175 to 180 °C, 0.0067 µM and 1.2 µM.
`O=C(Nc1ccc2c(c1)C(CN1CCC(c3ccc(F)cc3)CC1)CC2)N1CCCC1` (stereo not shown) [Compound 6c, 4-(4-fluorophenyl)-1-[6-(1-pyrrolidinyl)carbonylaminoindan-1-ylmethyl]piperidine] registered a melting point of 190 to 193 °C. The half-maximal inhibitory concentration (IC50) in data set [1] stood at 0.0099 µM. Moreover, in data set [2] (setting [3]), the IC50 amounted to 8.2 µM.
With `CC(=O)Nc1ccc2c(c1)C(CN1CCC(c3c[nH]c4ccc(F)cc34)CC1)CC2` (stereo not shown) [Compound 11c, 3-[1-(6-Acetylaminoindan-1-ylmethyl)piperidin-4-yl]-5-fluoro-1H-indole], the values for the IC50 in data set [1] and in data set [2] (setting [3]) were 0.015 µM and 0.016 µM, respectively.
For the molecule `CC(=O)Nc1ccc2c(c1)C(CN1CC=C(c3c[nH]c4ccc(F)cc34)CC1)CS2` (stereo not shown) [Compound 11d, 3-[1-(5-Acetylamino-2,3-dihydrobenzothiophen-3-ylmethyl)-1,2,3,6-tetrahydropyridin-4-yl]-5-fluoro-1H-indole], the concentration for half-maximal inhibition (IC50) in data set [1] was found to be 0.015 µM; in data set [2] (setting [3]), 0.029 µM.
Take `CC(=O)Nc1ccc2c(c1)C(CN1CC=C(c3c[nH]c4cc(Cl)ccc34)CC1)CC2` (stereo not shown) [Compound 11e, 3-[1-(6-Acetylaminoindan-1-ylmethyl)-1,2,3,6-tetrahydropyridin-4-yl]-6-chloro-1H-indole]: the half-inhibitory concentration (IC50) in data set [1] was determined as 0.13 µM; in data set [2], 0.027 µM.
Consider `CC(=O)Nc1ccc2c(c1)C(CN1CCC(c3c[nH]c4cc(Cl)ccc34)CC1)CC2` (stereo not shown) [Compound 11f, 3-[1-(6-Acetylaminoindan-1-ylmethyl)piperidin-4-yl]-6-chloro-1H-indole], for which the IC50 in data set [1] was 0.021 µM; in data set [2] (setting [3]), 0.008 µM.
On to `CC(=O)Nc1ccc2c(c1)C(CN1CC=C(c3c[nH]c4ccc(Cl)cc34)CC1)CC2` (stereo not shown) [Compound 11g, 3-[1-(6-Acetylaminoindan-1-ylmethyl)-1,2,3,6-tetrahydropyridin-4-yl]-5-chloro-1H-indole], for which the IC50 in data set [1] is 0.18 µM; in data set [2] it was 0.026 µM.
In the case of `O=C1CCCN1c1ccc2c(c1)C(CN1CCC(c3ccc(F)cc3)CC1)CC2` (stereo not shown) [Compound 12a, 4-(4-Fluorophenyl)-1-[6-(1-pyrrolidin-2-onyl)indan-1-ylmethyl]piperidine], the IC50 in data set [1] worked out at 0.0035 µM; in data set [2] (setting [3]), 0.34 µM.
Molecule `CC(=O)Nc1ccc2c(c1)C(CN1CC=C(c3cn(C)c4cc(Cl)ccc34)CC1)CC2` (stereo not shown) [Compound 15a, 3-[1-(6-Acetylaminoindan-1-ylmethyl)-1,2,3,6-tetrahydropyridin-4-yl]-6-chloro-1-methyl-1H-indole] gave a melting point of 189 to 193 °C. The inhibition at 0.1 µM in data set [1] (read-out: 3H Ketanserin (5-HT2A) binding, % inhibition of binding at 100 nM, at 100 nM, rat cortex membranes) is 25%. Besides, the concentration for half-maximal inhibition (IC50) in data set [2] (setting [3]) is 0.091 µM.
On to `CC(=O)Nc1ccc2c(c1)C(CN1CCC(c3cn(C)c4cc(Cl)ccc34)CC1)CC2` (stereo not shown) [Compound 15b, 3-[1-(6-Acetylaminoindan-1-ylmethyl)piperidin-4-yl]-6-chloro-1-m ethyl-1H-indole], for which, in data set [1], the half-inhibitory concentration (IC50) stood at 0.3 µM. Also, in data set [2] (3H-8-OH-DPAT 1 nM), the inhibition at 0.1 µM was 25%.
As to `CNc1ccc2c(c1)C(CN1CCC(c3ccc(F)cc3)CC1)CC2` (stereo not shown) [Compound 16a, 4-(4-Fluorophenyl)-1-(6-methylaminoindan-1-ylmethyl)piperidine], the results for the IC50 in data set [1] and in data set [2] (setting [3]) were 0.0016 µM and 0.17 µM, respectively.
